This note sets out measurements from patent US7829665B2 (priority 2005, dated 2010).

Assay [1] has as its system HCV sub-genomic replicon in GS4.3 cells (HuH-7 hepatoma cells). The assay is described as follows: Quantitation by ELISA of Neomycin phosphotransferase II (NPTII) in the HCV sub-genomic replicon, GS4.3. Format: cell-based, hepatitis C virus. As to conditions: Hepatitis C virus, Huh-7; GS4.3 cells, 72 h incubation, NPTII ELISA; read-out: Replicon EC50. The protocol: The HCV sub-genomic replicon (1377/NS3-3′, accession No. AJ242652), stably maintained in HuH-7 hepatoma cells, was created by Lohmann et al. Science 285: 110-113 (1999). The replicon-containing cell culture, designated GS4.3, was obtained from Dr. Christoph Seeger of the Institute for Cancer Research, Fox Chase Cancer Center, Philadelphia, Pa.
GS4.3 cells were maintained at 37° C., 5% CO2, in DMEM (Gibco 11965-092) supplemented with L-glutamine 200 mM (100×) (Gibco25030-081), non-essential amino acids (NEAA) (Biowhittaker 13-114E), heat-inactivated (HI) Fetal Bovine Serum (FBS) (Hyclone SH3007.03) and 750 μg/ml geneticin (G418) (Gibco 10131-035). Cells were sub-divided 1:3 or 4 every 2-3 days.
24 h prior to the assay, GS4.3 cells were collected, counted, and plated in 96-well plates (Costar 3585) at 7500 cells/well in 100 μl standard maintenance medium (above) and incubated in the conditions above. To initiate the assay, culture medium was removed, cells were washed once with PBS (Gibco 10010-023) and 90 μl Assay Medium (DMEM, L-glutamine, NEAA, 10% HI FBS, no G418) was added. Inhibitors were made as a 10× stock in Assay Medium, (3-fold dilutions from 10 μM to 56 pM final concentration, final DMSO concentration 1%), 10 μl were added to duplicate wells, plates were rocked to mix, and incubated as above for 72 h.
An NPTII Elisa kit was obtained from AGDIA, Inc. (Compound direct ELISA test system for Neomycin Phosphotransferase II, PSP 73000/4800). Manufacturer's instructions were followed, with some modifications. 10×PEB-1 lysis buffer was made up to include 500 μM PMSF (Sigma P7626, 50 mM stock in isopropanol). After 72 h incubation, cells were washed once with PBS and 150 μl PEB-1 with PMSF was added per well. Plates were agitated vigorously for 15 minutes, room temperature, then frozen at −70° C. Plates were thawed, lysates were mixed thoroughly, and 100 μl were applied to an NPTII Elisa plate. A standard curve was made. Lysate from DMSO-treated control cells was pooled, serially diluted with PEB-1 with PMSF, and applied to duplicate wells of the ELISA plate, in a range of initial lysate amount of 150 ul-2.5 ul. In addition, 100 μl buffer alone was applied in duplicate as a blank. Plates were sealed and gently agitated at room temperature for 2 h. Following capture incubation, the plates were washed 5×300 μl with PBS-T (0.5% Tween-20, PBS-T was supplied in the ELISA kit). For detection, a 1× dilution of enzyme conjugate diluent MRS-2 (5×) was made in PBS-T, into which 1:100 dilutions of enzyme conjugates A and B were added, as per instructions. Plates were resealed, and incubated with agitation, covered, room temperature, for 2 h. The washing was then repeated and 100 μl of room temperature TMB substrate was added. After approximately 30 minutes incubation (room temperature, agitation, covered), the reaction was stopped with 50 μl 3M sulfuric acid. Plates were read at 450 nm on a Molecular Devices Versamax plate reader.
Inhibitor effect was expressed as a percentage of DMSO-treated control signal, and inhibition curves were calculated using a 4-parameter equation: y=A+((B−A)/(1+((C/x)^D))), where C is half-maximal activity or EC50.

In assay [2] the target is T1, full-length NS3/NS4A-2 (HCV NS3 protease) (Hepatitis C virus genotype 1a, UniProt P27958).
T1 construct: Recombinant E. coli or Baculovirus full-length NS3 was diluted to 3.33 μM with assay buffer; made in house; host or cells: E. coli or baculovirus (BV) expression system
Description: NS3-NS4 protease assay / NS3 inhibition assay (RETS1 substrate, fluorescence kinetic read). Format: biochemical. The conditions noted are these: recombinant E. coli or Baculovirus full-length NS3 with NS4A-2; read-out: NS3-NS4 IC50. In a few lines: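 Full-length NS3 from E. coli (2 nM in assay) or baculovirus (3 nM) was precomplexed with excess NS4A-2 peptide, then preincubated 10 min at room temperature with serially diluted compounds starting at 50 microM. Reaction was started with RETS1 substrate at 8 μM before addition and read kinetically for 30 min (ex 335/em 495 nm). Four-parameter IC50s were converted to Ki by Cheng-Prusoff using Km 2.03 μM (E. coli) or 1.74 μM (BV).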

Bounds are passed on as bounds.

T1 sequence (P27958 1027-1657): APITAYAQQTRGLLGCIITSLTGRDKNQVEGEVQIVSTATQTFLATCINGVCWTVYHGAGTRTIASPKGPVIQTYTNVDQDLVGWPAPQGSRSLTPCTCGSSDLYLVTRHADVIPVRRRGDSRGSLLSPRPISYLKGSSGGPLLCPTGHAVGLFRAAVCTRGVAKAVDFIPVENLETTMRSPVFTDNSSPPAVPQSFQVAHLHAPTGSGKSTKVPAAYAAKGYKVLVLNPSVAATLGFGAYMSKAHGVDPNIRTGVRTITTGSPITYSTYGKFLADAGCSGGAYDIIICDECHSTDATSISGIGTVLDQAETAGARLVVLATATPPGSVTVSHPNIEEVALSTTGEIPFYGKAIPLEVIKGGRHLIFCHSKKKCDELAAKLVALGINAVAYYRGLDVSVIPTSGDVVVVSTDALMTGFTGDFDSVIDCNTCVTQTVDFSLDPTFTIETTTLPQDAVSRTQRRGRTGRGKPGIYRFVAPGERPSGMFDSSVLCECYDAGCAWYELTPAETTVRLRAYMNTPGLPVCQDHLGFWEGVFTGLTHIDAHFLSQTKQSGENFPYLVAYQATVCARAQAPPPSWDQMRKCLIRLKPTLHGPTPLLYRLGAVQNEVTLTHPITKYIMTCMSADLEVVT

As usually defined, the EC50 is the concentration giving half of the maximal effect. As usually defined, the IC50 is the concentration that inhibits the measured activity by half. As to `COc1cccc(CN[C@H]2CCCCC/C=C\[C@@H]3C[C@@]3(C(=O)NS(=O)(=O)C3CC3)NC(=O)[C@@H]3C[C@@H](OC(=O)N4Cc5cccc(F)c5C4)CN3C2=O)c1` [Compound 906], in assay [1], the EC50 is less than 100 nM. In addition, in assay [2], the IC50 is less than 100 nM.

On to `CC(C)(C)OC(=O)N[C@H]1CCCCC/C=C\[C@@H]2C[C@@]2(C(=O)NC(=O)c2ccccc2)NC(=O)[C@@H]2C[C@@H](OC(=O)N3Cc4ccccc4C3)CN2C1=O` [Compound 705], for which, in assay [1], the EC50 is less than 100 nM. Moreover, the IC50 in assay [2] was less than 100 nM.

In the case of `CC(C)NS(=O)(=O)NC(=O)[C@@]12C[C@H]1/C=C\CCCCC[C@H](NC(=O)OC1CCCC1)C(=O)N1C[C@H](OC(=O)N3Cc4cccc(F)c4C3)C[C@H]1C(=O)N2` [Compound 218], the EC50 in assay [1] is less than 100 nM. In addition, in assay [2], the IC50 is less than 100 nM.

Regarding `COc1cc2c(cc1OC)CN(C(=O)O[C@@H]1C[C@H]3C(=O)N[C@]4(C(=O)NS(=O)(=O)N5CCOCC5)C[C@H]4/C=C\CCCCC[C@H](NC(=O)OC(C)(C)C)C(=O)N3C1)CC2` [Compound 208], the EC50 in assay [1] was less than 10000 nM. Also, the IC50 in assay [2] is less than 100 nM.

On to `O=C1N[C@]2(C(=O)NS(=O)(=O)C3CC3)C[C@H]2/C=C\CCCCC[C@H](NCCC(F)(F)F)C(=O)N2C[C@H](OC(=O)N3Cc4cccc(F)c4C3)C[C@@H]12` [Compound 900], for which, in assay [1], the EC50 was less than 100 nM. The IC50 in assay [2] is less than 100 nM.

As to `CC(C)(C)OC(=O)N[C@H]1CCCCC/C=C\[C@@H]2C[C@@]2(C(=O)NS(=O)(=O)C2CC2)NC(=O)[C@@H]2C[C@@H](OC(=O)N3CCc4cccc(F)c4C3)CN2C1=O` [Compound 257], the EC50 in assay [1] was less than 100 nM. Besides, the IC50 in assay [2] was less than 100 nM.

`CCOC1(S(=O)(=O)NC(=O)[C@@]23C[C@H]2/C=C\CCCCC[C@H](NC(=O)OC(C)(C)C)C(=O)N2C[C@H](OC(=O)N4Cc5cccc(Cl)c5C4)C[C@H]2C(=O)N3)CC1` [Compound 165]: in assay [1], the EC50 is less than 100 nM. Further, the IC50 in assay [2] is less than 100 nM.

As for `CN(C)S(=O)(=O)NC(=O)[C@@]12C[C@H]1/C=C\CCCCC[C@H](NC(=O)OC1CCCC1)C(=O)N1C[C@H](OC(=O)N3Cc4cccc(F)c4C3)C[C@H]1C(=O)N2` [Compound 215], the EC50 in assay [1] was less than 100 nM. The IC50 in assay [2] is less than 100 nM.

Regarding `CN(C)S(=O)(=O)NC(=O)[C@@]12C[C@H]1CCCCC(F)(F)CC[C@H](NC(=O)OC(C)(C)C)C(=O)N1C[C@H](OC(=O)N3Cc4cccc(F)c4C3)C[C@H]1C(=O)N2` [Compound 1016], in assay [1], the EC50 was less than 100 nM. Besides, the IC50 in assay [2] was less than 100 nM.

In the case of `O=C1N[C@]2(C(=O)NS(=O)(=O)C3CC3)C[C@H]2/C=C\CCCCC[C@H](NCc2ccccc2)C(=O)N2C[C@H](OC(=O)N3Cc4cccc(F)c4C3)C[C@@H]12` [Compound 905], in assay [1], the EC50 is less than 100 nM. The IC50 in assay [2] was less than 100 nM.

As for `CN(C)C(=S)N[C@H]1CCCCC/C=C\[C@@H]2C[C@@]2(C(=O)NS(=O)(=O)C2CC2)NC(=O)[C@@H]2C[C@@H](OC(=O)N3Cc4cccc(F)c4C3)CN2C1=O` [Compound 922], the EC50 in assay [1] is less than 1000 nM. Besides, the IC50 in assay [2] was less than 100 nM.

As to `CC(C)(C)OC(=O)N[C@H]1CCCCC/C=C\[C@@H]2C[C@@]2(C(=O)NCCF)NC(=O)[C@@H]2C[C@@H](OC(=O)N3Cc4cccc(F)c4C3)CN2C1=O` [Compound 611], the EC50 in assay [1] was less than 10000 nM. Besides, the IC50 in assay [2] was less than 1000 nM.

For the compound `CC(C)(C)OC(=O)N[C@H]1CCCCC/C=C\[C@@H]2C[C@@]2(C(=O)NCc2cccc(C(=O)O)c2)NC(=O)[C@@H]2C[C@@H](OC(=O)N3Cc4cccc(F)c4C3)CN2C1=O` [Compound 617], the EC50 in assay [1] was greater than 10000 nM. Further, in assay [2], the IC50 was less than 100 nM.

Consider `O=C(CCO)N[C@H]1CCCCC/C=C\[C@@H]2C[C@@]2(C(=O)NS(=O)(=O)C2CC2)NC(=O)[C@@H]2C[C@@H](OC(=O)N3Cc4cccc(F)c4C3)CN2C1=O` [Compound 251], for which the EC50 in assay [1] is less than 10000 nM. Moreover, the IC50 in assay [2] was less than 100 nM.

`CC(C)(C)OC(=O)N[C@H]1CCNCC/C=C\[C@@H]2C[C@@]2(C(=O)NS(=O)(=O)C2CC2)NC(=O)[C@@H]2C[C@@H](OC(=O)N3Cc4cccc(F)c4C3)CN2C1=O` [Compound 1031]: the EC50 in assay [1] was less than 1000 nM. Moreover, the IC50 in assay [2] was less than 100 nM.

Regarding `CC(C)(C)C(=O)N[C@H]1CCCCC/C=C\[C@@H]2C[C@@]2(C(=O)NC#N)NC(=O)C2C[C@@H](OC(=O)N3Cc4cccc(F)c4C3)CN2C1=O` (stereo partly shown) [Compound 640], in assay [1], the EC50 was greater than 10000 nM. In assay [2], the IC50 was less than 100 nM.

In the case of `CN(C)S(=O)(=O)NC(=O)[C@@]12C[C@H]1/C=C\CCCCC[C@H](NC(=O)OC(C)(C)C)C(=O)N1C[C@H](OC(=O)N3Cc4c(Cl)ccc(Cl)c4C3)C[C@H]1C(=O)N2` [Compound 206], the EC50 in assay [1] was less than 100 nM. Besides, in assay [2], the IC50 is less than 100 nM.

On to `O=C1N[C@]2(C(=O)NS(=O)(=O)C3CC3)C[C@H]2/C=C\CCCCC[C@H](NC2CCCC2)C(=O)N2C[C@H](OC(=O)N3Cc4cccc(F)c4C3)C[C@@H]12` [Compound 919], for which, in assay [1], the EC50 is less than 10000 nM. Also, the IC50 in assay [2] was less than 100 nM.

`O=C1N[C@]2(C(=O)NS(=O)(=O)C3CC3)C[C@H]2/C=C\CCCCC[C@H](NCc2ccccc2C(F)(F)F)C(=O)N2C[C@H](OC(=O)N3Cc4cccc(F)c4C3)C[C@@H]12` [Compound 917]: in assay [1], the EC50 is less than 100 nM. Further, the IC50 in assay [2] is less than 100 nM.

Turning to `O=C(N[C@H]1CCCCC/C=C\[C@@H]2C[C@@]2(C(=O)NS(=O)(=O)N2CCC2)NC(=O)[C@@H]2C[C@@H](OC(=O)N3CCc4ccccc4C3)CN2C1=O)OC1CCCC1` [Compound 233], the EC50 in assay [1] was less than 100 nM. In addition, the IC50 in assay [2] was less than 100 nM.

Take `O=C1N[C@]2(C(=O)NS(=O)(=O)C3CC3)C[C@H]2/C=C\CCCCC[C@H](Nc2nccs2)C(=O)N2C[C@H](OC(=O)N3Cc4cccc(F)c4C3)C[C@@H]12` [Compound 924]: the EC50 in assay [1] is less than 100 nM. For the same compound, in assay [2], the IC50 is less than 100 nM.

For `O=C(N[C@H]1CCCCC/C=C\[C@@H]2C[C@@]2(C(=O)NS(=O)(=O)C2CCCCC2)NC(=O)[C@@H]2C[C@@H](OC(=O)N3CCc4ccccc4C3)CN2C1=O)OC1CCCC1` [Compound 189], the EC50 in assay [1] was less than 1000 nM. Besides, the IC50 in assay [2] was less than 100 nM.

Turning to `CC(C)(C)OC(=O)N[C@H]1CCCCC/C=C\[C@@H]2C[C@@]2(C(=O)NS(=O)(=O)C2CC2)NC(=O)[C@@H]2C[C@@H](OC(=O)N3Cc4cccc(Br)c4C3)CN2C1=O` [Compound 160], the EC50 in assay [1] was less than 100 nM. Moreover, the IC50 in assay [2] was less than 100 nM.

As for `CC(C)(C)OC(=O)N[C@H]1CCCCC/C=C\[C@@H]2C[C@@]2(C(=O)Nc2n[nH]c(C3CC3)n2)NC(=O)[C@@H]2C[C@@H](OC(=O)N3Cc4cccc(F)c4C3)CN2C1=O` [Compound 635], the EC50 in assay [1] was less than 1000 nM. Besides, the IC50 in assay [2] was less than 100 nM.

On to `CC(C)(C)OC(=O)N[C@H]1CCCCC/C=C\[C@@H]2C[C@@]2(C(=O)NS(=O)(=O)NC2CCCC2)NC(=O)[C@@H]2C[C@@H](OC(=O)N3Cc4cccc(Cl)c4C3)CN2C1=O` [Compound 212], for which the EC50 in assay [1] was less than 1000 nM. In addition, in assay [2], the IC50 was less than 100 nM.

As for `CN(C)C(=S)NC(=O)[C@@]12C[C@H]1/C=C\CCCCC[C@H](NC(=O)OC(C)(C)C)C(=O)N1C[C@H](OC(=O)N3Cc4cccc(F)c4C3)C[C@H]1C(=O)N2` [Compound 236], the EC50 in assay [1] was less than 100 nM. In assay [2], the half-maximal inhibitory concentration (IC50) was less than 100 nM.
